In US6780398B1, “Aqueous nasal formulation” (Glaxo Smithkline Kabushiki Kaisha, priority 1999, dated 2004):

Tested on: Ps. cepacia
Assay: Challenge test of BANS against Ps. cepacia (preservative effectiveness)
Type: cell-based, Pseudomonas cepacia (now known as Burkhoderia cepacia)
Settings: phenylethylalcohol together with benzalkonium chloride in the formulation; FIG. 7
Excerpt: 4) Challenge Test of BANS Against Ps. Cepacia
Formulations corresponding to BANS and the same formulation containing only 0.02% (w/w) benzalkonium chloride as preservative (i.e. no phenylethyl alcohol) and the same formulation containing only 0.275% (v/w) phenylethylalcohol as preservative (i.e. no benzalkonium chloride) were challenged with an innoculum of Ps cepacia.

Compound: OCCc1ccccc1 [phenylethylalcohol, Phenylethyl alcohol]
- preservative properties by killing Pseudomonas cepacia: synergistic effect with benzalkonium chloride
